For six compounds, EC100 and inhibition results are on record in ChEMBL document CHEMBL1149902, “Steroidal triglycosides, kurilensosides A, B, and C, and other polar steroids from the Far Eastern starfish Hippasteria kurilensis” (2008).

Holding throughout (type): functional
Experiment [1] relates to Mesocentrotus nudus. Kind of experiment: Inhibition of Strongylocentrotus nudus egg fertilization by Strongylocentrotus nudus sperm.
The test system of experiment [2] is Mesocentrotus nudus. Kind of experiment: Inhibition of Strongylocentrotus nudus egg fertilization by Strongylocentrotus nudus sperm at 55 uM.
Experiment [3] concerns Mesocentrotus nudus. Description: Inhibition of Strongylocentrotus nudus egg fertilization by Strongylocentrotus nudus sperm at 13 uM.
Experiment [4] has as its system Mesocentrotus nudus. Kind of experiment: Inhibition of Strongylocentrotus nudus egg fertilization by Strongylocentrotus nudus sperm at 67 uM.

As to `CO[C@H]1[C@H](O[C@H]2CC[C@@]3(C)C([C@H](O)C[C@@]4(O)[C@@H]5[C@@H](O)C[C@H]([C@H](C)CC[C@H](O[C@@H]6O[C@@H](CO)[C@H](OS(=O)(=O)[O-])[C@H]6O[C@@H]6O[C@@H](CO)[C@H](O)[C@H]6O)C(C)C)[C@@]5(C)CC[C@@H]43)[C@H]2O)OC[C@@H](O)[C@@H]1O.[Na+]` (stereo partly specified) [KURILENSOSIDE A], in the experiment on Mesocentrotus nudus [1], the EC100 was 8.9 ×10⁻⁵ M. In general, inhibition refers to the percentage by which the read-out fell short of the control. `CO[C@H]1[C@H](OC[C@@H]2O[C@@H](O[C@@H](CC[C@@H](C)[C@H]3C[C@@H](O)[C@@H]4[C@]3(C)CC[C@H]3[C@@]4(O)[C@H](O)[C@H](O)C4[C@@H](O)[C@@H](O[C@@H]5OC[C@@H](O)[C@H](O)[C@H]5OC)CC[C@@]43C)C(C)C)[C@H](O)[C@H]2O)OC[C@@H](O)[C@@H]1O` (stereo partly specified) [KURILENSOSIDE C] came in with an inhibition at 55 µM in the experiment with Mesocentrotus nudus [2] of 100%. Consider `CC(C)[C@@H](O)CC[C@@H](C)[C@H]1C[C@H](O)[C@@H]2[C@]1(C)CC[C@H]1[C@@]2(O)C[C@@H](O)C2[C@@H](O)[C@@H](O)CC[C@@]21C` (stereo partly specified), for which 13 µM produced 100% inhibition in the experiment on Mesocentrotus nudus [3].

With `CO[C@H]1[C@H](O[C@H]2CC[C@@]3(C)C([C@H]2O)[C@@H](O)[C@@H](O)[C@@]2(O)[C@@H]4[C@H](O)C[C@H]([C@H](C)CC[C@H](O[C@@H]5O[C@@H](CO[C@H]6OC[C@H](O)[C@@H](O)[C@@H]6O)[C@H](O)[C@H]5O)C(C)C)[C@@]4(C)CC[C@@H]23)OC[C@@H](OC)[C@@H]1O` (stereo partly specified) [KURILENSOSIDE B], testing at 55 µM with Mesocentrotus nudus [2] gave an inhibition of 100%.

The compound `CC(C)[C@@H](O)/C=C/[C@@H](C)[C@H]1C[C@@H](O)C2[C@@]3(O)C(CC[C@@]21C)[C@@]1(C)CC[C@H](O)[C@H](O)C1[C@@H](OS(=O)(=O)[O-])[C@H]3O.[Na+]` (stereo partly specified) came in with an EC100 with Mesocentrotus nudus [1] of 11 ×10⁻⁵ M. In the experiment with Mesocentrotus nudus [4], `CO[C@H]1[C@H](OC[C@@H]2O[C@@H](O[C@@H](CC[C@@H](C)[C@H]3C[C@@H](O)[C@@H]4[C@]3(C)CC[C@H]3[C@@]4(O)C[C@H](O)C4[C@@H](O)[C@@H](O)CC[C@@]43C)C(C)C)[C@H](O)[C@H]2O)OC[C@@H](O)[C@@H]1O` (stereo partly specified) [KURILENSOSIDE D] displayed an inhibition at 67 µM of 100%.
